# Source: patent US6355799B1, “Substituted benzene compounds, process for their preparation, and herbicidal and defoliant compositions containing them” (ISK Americas Incorporated, priority 1997, dated 2002)
# Where two headings read alike, the source gives them in different places.
# What was measured:
# Assay type in all cases: in vivo
# [1] = system: barnyardgrass (Echinochloa crus-galli, ECHCG); assay: Post-emerge test, greenhouse herbicide activity screening; settings: for phytotoxicity rating ECHCG: rating scale 0-100; for pest or weed control at 63 g/ha / pest or weed control at 250 g/ha: Echinochloa crus-galli, post-emergence, 336 h, read-out: Post-emerge Herbicidal Activity ECHCG
# Method in brief: (§1)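 Applied at 15–1000 g ai/ha from acetone in 187 l/ha spray volume. Post-emergence applications included 0.25% v/v non-ionic surfactant and reached plants sown 8–21 days before. Pre-emergence applications were incorporated by surface watering. Efficacy or crop damage was rated on a 0–100 scale after 14 days.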
# [2] = system: ivyleaf morningglory (Ipomoea hederacea, IPOHE); assay: as above; settings: for phytotoxicity rating IPOHE: rating scale 0-100; for pest or weed control at 63 g/ha / pest or weed control at 250 g/ha: Ipomoea, post-emergence, 336 h, read-out: Post-emerge Herbicidal Activity IPOHE
# Method in brief: as §1
# [3] = system: redroot pigweed (Amaranthus retroflexus, AMARE); assay: Pre-emerge test, greenhouse herbicide activity screening; settings: for pest or weed control at 63 g/ha / pest or weed control at 250 g/ha: Amaranthus retroflexus, pre-emergence, 336 h, read-out: Pre-emerge Herbicidal Activity AMARE; for Pre-emerge Herbicidal Activity AMARE (phytotoxicity rating, scale 0-100): rated 14 days after application, 0 = no damage, 100 = complete death
# Method in brief: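 Compounds in acetone were track-sprayed at 15-1000 g ai/ha (187 l/ha) on sandy loam pots: pre-emerge one day after seeding, post-emerge at 2-3 leaf stage with 0.25% v/v non-ionic surfactant. Phytotoxicity was rated 14 days later on a 0 (no damage) to 100 (complete death) scale.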
# [4] = system: common ragweed (Ambrosia artemisizfolia L., AMBEL); assay: as above; settings: for Pre-emerge Herbicidal Activity AMBEL (phytotoxicity rating, scale 0-100): rated 14 days after application, 0 = no damage, 100 = complete death
# Method in brief: (§2)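 Herbicidal damage is scored 0 (none) to 100 (complete plant death) two weeks after a simulated field spray. Rates span 15–1000 g ai/ha, delivered in acetone at 187 l/ha. For post-emergence treatments, plants have 2–3 leaves and the spray carries 0.25% v/v non-ionic surfactant.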
# [5] = system: common ragweed (Ambrosia artemisizfolia L., AMBEL); assay: Post-emerge test, greenhouse herbicide activity screening; settings: for phytotoxicity rating AMBEL: rating scale 0-100
# Method in brief: as §1
# [6] = system: upland rice (Oryza sp., var. Tebonnet, RICE); assay: Post-emerge test, crop safety; settings: post-emerge, 14 days after application, rating scale 0-100
# Method in brief: as §2
# [7] = system: soybean (Glycine max L., var. Pella 86, SOY); assay: Post-emerge test, crop safety; settings: 14 days after application, rating scale 0-100
# Method in brief: as §2
# [8] = system: field corn (Zea mays L., var. Dekalb 535, CORN); assay: Post-emerge test, crop safety; settings: post-emerge, 14 days after application, rating scale 0-100
# Method in brief: as §2
# [9] = system: upland rice (Oryza sp., var. Tebonnet, RICE); assay: Pre-emerge test, crop safety; settings: crop damage rating 0-100, 14 days after application
# Method in brief: (§3)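 Sandy loam pots; pre-emerge: sown 1 d pre-spray, surface-watered after, then bottom-watered. Post-emerge: sown 8–21 d before, 2–3 leaf stage, + 0.25% v/v NIS, bottom-watered. Acetone, 187 l/ha track spray, 15–1000 g ai/ha. 0–100 injury score, day 14.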
# [10] = system: soybean (Glycine max L., var. Pella 86, SOY); assay: Pre-emerge test, crop safety; settings: crop damage rating 0-100, 14 days after application
# Method in brief: as §3
# [11] = system: field corn (Zea mays L., var. Dekalb 535, CORN); assay: Pre-emerge test, crop safety; settings: crop damage rating 0-100, 14 days after application
# Method in brief: as §3
# [12] = post-emerge, 63 g ai/ha, 14 days after application
# [13] = post-emerge, 250 g ai/ha, 14 days after application
# [14] = 63 g ai/ha, phytotoxicity rating 0-100, 14 days after application
# [15] = 250 g ai/ha, phytotoxicity rating 0-100, 14 days after application
# [16] = 63 g ai/ha, phytotoxicity rating 0-100 (0 no damage, 100 complete death), 14 days after application
# [17] = 250 g ai/ha, phytotoxicity rating 0-100 (0 no damage, 100 complete death), 14 days after application
# [18] = post-emerge, 63 g ai/ha, phytotoxicity rating 0-100 at 14 days after application
# [19] = post-emerge, 250 g ai/ha, phytotoxicity rating 0-100 at 14 days after application
# [20] = pre-emerge, rate 63 g ai/ha, phytotoxicity rating 0-100 at 14 days after application
# [21] = pre-emerge, rate 250 g ai/ha, phytotoxicity rating 0-100 at 14 days after application
Compound,"phytotoxicity rating ECHCG [1, 12]","phytotoxicity rating ECHCG [1, 13]","phytotoxicity rating IPOHE [2, 12]","phytotoxicity rating IPOHE [2, 13]","pest or weed control at 63 g/ha [3, 14]","pest or weed control at 250 g/ha [3, 15]","pest or weed control at 63 g/ha [1, 16]","pest or weed control at 250 g/ha [1, 17]","Post-emerge Herbicidal Activity AMBEL [5, 16]","Post-emerge Herbicidal Activity AMBEL [5, 17]","pest or weed control at 63 g/ha [2, 16]","pest or weed control at 250 g/ha [2, 17]","Pre-emerge Herbicidal Activity AMARE (phytotoxicity rating, scale 0-100) ([3]; 63 g ai/ha, pre-emerge)","Pre-emerge Herbicidal Activity AMARE (phytotoxicity rating, scale 0-100) ([3]; 250 g ai/ha, pre-emerge)","Pre-emerge Herbicidal Activity AMBEL (phytotoxicity rating, scale 0-100) ([4]; 63 g ai/ha, pre-emerge)","Pre-emerge Herbicidal Activity AMBEL (phytotoxicity rating, scale 0-100) ([4]; 250 g ai/ha, pre-emerge)","pest or weed control at 63 g/ha [1, 18]","pest or weed control at 250 g/ha [1, 19]","pest or weed control at 63 g/ha [2, 18]","pest or weed control at 250 g/ha [2, 19]",also measured
"COc1c(Cl)cc(F)c(-n2c(=O)cc(C(F)(F)F)n(C)c2=O)c1NC(N)=O [Compound 3-26, 3-(2-aminocarbonylamino-4-chloro-6-fluoro-3-methoxyphenyl)-1-methyl-6-trifluoromethyl-2,4(1H, 3H)-pyrimidinedione]",0,0,60,90,80%,100%,–,–,–,–,–,–,–,–,–,–,–,–,–,–,"Pre-emerge Herbicidal Activity AMBEL [4, 14]: 10; Pre-emerge Herbicidal Activity AMBEL [4, 15]: 90"
"Cn1c(C(F)(F)F)cc(=O)n(-c2c(F)cc(Cl)c(O)c2N)c1=O [Compound 1-16, 3-(2-amino-4-chloro-6-fluoro-3-hydroxyphenyl)-1-methyl-6-trifluoromethyl-2,4(1H, 3H)-pyrimidinedione]",–,–,–,–,–,–,0%,0%,0,0,20%,50%,0,0,0,0,–,–,–,–,–
"Nc1c(O)c(Cl)cc(F)c1N1C(=O)C2=C(CCCC2)C1=O [Compound 8-2, 2-amino-6-chloro-4-fluoro-3-tetrahydrophthalimido)phenol]",–,–,–,–,–,–,–,–,–,–,–,–,–,–,–,–,20%,30%,50%,90%,"Post-emerge Herbicidal Activity AMBEL [5, 18]: 30; Post-emerge Herbicidal Activity AMBEL [5, 19]: 90; pest or weed control at 63 g/ha [3, 20]: 90%; pest or weed control at 250 g/ha [3, 21]: 100%"
"COc1c(Cl)cc(F)c(-n2c(=O)cc(C(F)(F)F)n(C)c2=O)c1[N+](=O)[O-] [Compound 1-5, 3-(4-chloro-6-fluoro-3-methoxy-2-nitrophenyl)-1-methyl-6-trifluoromethyl-2,4(1H, 3H)-pyrimidinedione]",–,–,–,–,–,–,0%,0%,0,30,0%,70%,20,95,0,20,–,–,–,–,–
"COc1c(Cl)cc(F)c(-c2nn(C)c(C(F)(F)F)c2Cl)c1N [Compound 7-2, 4-chloro-3-(2-amino-4-chloro-6-fluoro3-metoxyphenyl)-1-methyl-5-trifluoromethyl-1H-pyrazole]",–,–,–,–,–,–,–,–,–,–,–,–,–,–,–,–,30%,90%,80%,100%,"Post-emerge Herbicidal Activity AMBEL [5, 18]: 0; Post-emerge Herbicidal Activity AMBEL [5, 19]: 10; pest or weed control at 63 g/ha [3, 20]: 100%; pest or weed control at 250 g/ha [3, 21]: 100%; Pre-emerge Herbicidal Activity AMBEL [4, 20]: 80; Pre-emerge Herbicidal Activity AMBEL [4, 21]: 100"
"COC(=O)Nc1c(OC)c(Cl)cc(F)c1-n1c(=O)cc(C(F)(F)F)n(C)c1=O [Compound 4-1, 3-(4chloro-6-fluoro-3-methoxy-2-methoxycarbonylaminophenyl)-1-methyl-6-trifluoromethyl-2,4(1H, 3H)-pyrimidinedione]",0,0,100,100,100%,100%,–,–,–,–,–,–,–,–,–,–,–,–,–,–,"phytotoxicity rating RICE (crop damage) ([6]; 63 g ai/ha): 20; phytotoxicity rating RICE (crop damage) ([6]; 250 g ai/ha): 50; phytotoxicity rating SOY (crop damage) ([7]; 63 g ai/ha): 50; phytotoxicity rating SOY (crop damage) ([7]; 250 g ai/ha): 100; phytotoxicity rating CORN (crop damage) ([8]; 63 g ai/ha): 10; phytotoxicity rating CORN (crop damage) ([8]; 250 g ai/ha): 20; Pre-emerge Herbicidal Activity RICE ([9]; 63 g ai/ha): 50; Pre-emerge Herbicidal Activity RICE ([9]; 250 g ai/ha): 95; Pre-emerge Herbicidal Activity SOY ([10]; 63 g ai/ha): 70; Pre-emerge Herbicidal Activity SOY ([10]; 250 g ai/ha): 100; Pre-emerge Herbicidal Activity CORN ([11]; 63 g ai/ha): 10; Pre-emerge Herbicidal Activity CORN ([11]; 250 g ai/ha): 80; phytotoxicity rating AMBEL [5, 12]: 40; phytotoxicity rating AMBEL [5, 13]: 90"
"COc1c(Cl)cc(F)c(-n2c(=O)cc(C(F)(F)F)n(C)c2=O)c1N(C(C)=O)C(C)=O [Compound 2-2, 3-(4-chloro-2-diacetylamino-6-fluoro-3-methoxyphenyl)-1-methyl-6-trifluoromethyl-2,4(1H, 3H)-pyrimidinedione]",–,–,–,–,–,–,0%,40%,0,70,95%,100%,100,100,40,100,–,–,–,–,–
Cc1nn(-c2c(Cl)cc(Cl)cc2NC(=O)c2ccc3ccccc3c2)c(=O)n1C(F)F [Compound 6-16],–,–,–,–,–,–,–,–,–,–,–,–,–,–,–,–,20%,40%,100%,75%,"pest or weed control at 63 g/ha [3, 20]: 30%; pest or weed control at 250 g/ha [3, 21]: 50%"
"CNC(=O)N(C(=O)NC)c1c(OC)c(Cl)cc(F)c1-n1c(=O)cc(C(F)(F)F)n(C)c1=O [Compound 3-1, 3-[2-bis(methylaminocarbonyl)amino-4-chloro-6-fluoro-3-methoxyphenyl]-1-methyl-6-trifluoromethyl-2,4(1H, 3H)-pyrimidinedione]",0,0,0,30,0%,30%,–,–,–,–,–,–,–,–,–,–,–,–,–,–,"phytotoxicity rating AMBEL [5, 12]: 0; phytotoxicity rating AMBEL [5, 13]: 0; Pre-emerge Herbicidal Activity AMBEL [4, 14]: 0; Pre-emerge Herbicidal Activity AMBEL [4, 15]: 0"
